Assay results from patent US5525731A, “Camptothecin analogues and methods of preparation thereof” (priority 1994, dated 1996).
Entries after “also recorded” stand apart in the source; their conditions may differ. Where two headings read alike, the source gives them in different places.

Experiments:
[1] = tested on: HL-60 cells (human promyelocytic leukemia); test: Cytotoxicity, XTT assay, HL-60 cell growth, 72 hr exposure; type: cell-based; details: for IC50: read-out: Inhibitory Concentrations IC50
Description: (§1) The synthesized compounds were evaluated for their cytotoxic effects on HL-60 (human promyelocytic leukemia) and 833K cells. The assay was conducted in 96-well microplates. The compounds were serially diluted in 4 to 6 steps with dimethylsulfoxide and added to cell incubation medium (RPMI 1640 containing 10% fetal. […]) at the final concentration of 1.0% dimethylsulfoxide in the medium. The cytotoxicity of the compounds were determined by the XTT-microculture tetrazolium assay: 2',3'-bis(2-methoxy-4-nitro-5-sulfophenyl)-3-[(phenylamino)carbonyl]-2H-tetrazolium hydroxide (XTT) was prepared at 1 mg/mL in prewarmed (37° C.) medium without serum. Phenazine methosulfate (PMS) and fresh XTT were mixed together to obtain 0.075 mM PMS-XTT solution (25 mL of the stock with 5 mg PMS added per 5 mL of 1 mg/mL XTT). Fifty microliters of this mixture were added to each well of the cell culture after 72 hours exposure to the testing compound. After incubation at 37° C. for 6 hours, the absorbance was determined at 450 nm and 630 nm with a microplate reader (EL 340, Bio-Tek Instruments, Inc., Winooski, Vt.). THe median-effect inhibitory concentration (IC50) was determined from a medium-effect plot using computer software for the purpose.
(§2) The results of the assay of cytotoxicity towards HL-60 and 833K cells of several analogues of camptothecin prepared in accord with the invention are illustrated in the accompanying Tables I and II, along with comparison data for native camptothecin. The data shown indicate that the camptothecin analogues prepared by the new methods provided by the invention have significant cytotoxic activity against cancer cells. […]

833K cells = test: Cytotoxicity, XTT assay, 833K cell growth, 72 hr exposure; type: cell-based; details: Homo sapiens, 72 h
Description: as §1, §2

B-16 melanoma = type: in vivo, BD2 F1 mice
Description: Average body weight changes were recorded daily.
Tumor: B16 Melanoma Drug A = Camptothecin
Inoculation: 2 × 10^6 cells. S.C.
(§3) Schedule: QD × 5. I.P. started day 4

Sarcoma 180 = tested on: Sarcoma 180
Description: The control lane (Table A) indicates separate inoculation of nine mice with B-16 melanoma and sarcoma 180.
Anti-tumor activity of the newly synthesized compounds and the established drugs (as positive controls) against solid tumors (B-16 melanoma and sarcoma 180) was tested in BD2 F1 mice. Tumor (about 2.5×10^6 cells) was inoculated subcutaneously (s.c.). Treatment with the drug started on day 4 after inoculation. The drug was injected intraperitoneously (i.p) daily (QD) for five days. Control mice received the same volume (50 μl) of the solvent vehicle (Dinso) as the drug-treated animals. Tumor size was evaluated every few days using a caliper for both the control and the treated group. Average body weight changes were recorded daily. Any lethality due to high dose drug toxicity or due to tumor progression was also recorded.
as §3

topoisomerase I = details: camptothecin, literature; cited from earlier work
topoisomerase I and DNA = details: camptothecin, literature; cited from earlier work
[2] = camptothecin, background; cited from earlier work
[3] = Table I, HL-60 (head HL-6), 72 hr, XTT
[4] = B-16 melanoma, 4 mg/kg i.p. QD × 5, day 7
[5] = Sarcoma 180, 4 mg/kg i.p. QD × 5, day 7

CC[C@@]1(O)C(=O)OCc2c1cc1n(c2=O)Cc2cc3ccccc3nc2-1 [Camptothecin]
IC70 ([1]; Homo sapiens, HL-60, 72 h, read-out: Inhibitory Concentrations IC70, Table I, HL-60 (head HL-6), 72 hr, XTT): 0.012 µM | IC70 ([1]; Homo sapiens, HL-60, 72 h, read-out: Inhibitory Concentrations IC70, Table II, HL-60, 72 hr, XTT): 0.012 µM | IC95 ([1]; Homo sapiens, HL-60, 72 h, read-out: Inhibitory Concentrations IC95, Table I, HL-60 (head HL-6), 72 hr, XTT): 0.025 µM | IC95 ([1]; Homo sapiens, HL-60, 72 h, read-out: Inhibitory Concentrations IC95, Table II, HL-60, 72 hr, XTT): 0.025 µM | Inhibitory Concentrations IC70 [1, 3]: 0.006 | Inhibitory Concentrations IC95 [1, 3]: 0.022 | IC70 ([1]; Table II, HL-60, 72 hr, XTT, read-out: Inhibitory Concentrations IC70): 0.006 µM | IC95 ([1]; Table II, HL-60, 72 hr, XTT, read-out: Inhibitory Concentrations IC95): 0.022 µM | IC50 [1, 3]: 0.0035 µM | IC50 ([1]; Table I, HL-60 (head HL-6), 72 hr, XTT, listed as WS-1): 0.0094 µM | IC50 ([1]; Table II, HL-60, 72 hr, XTT): 0.0035 µM | IC50 ([1]; Table II, HL-60, 72 hr, XTT, listed as WS-1): 0.0094 µM | IC50 (833K cells; read-out: Inhibitory Concentrations IC50): 0.0153 µM | IC70 (833K cells; read-out: Inhibitory Concentrations IC70): 0.043 µM | IC95 (833K cells; read-out: Inhibitory Concentrations IC95): 0.649 µM | AVERAGE TUMOR VOLUME (B-16 melanoma; B16 melanoma, 4 mg/kg, day 7): 0.113 CM^3 | DEATHS (D/L) (B-16 melanoma; B16 melanoma, 4 mg/kg, day 7): 0/2 | PERCENT OF CONTROL (tumor volume) (B-16 melanoma; B16 melanoma, 4 mg/kg, day 7): 59.5% | AVERAGE TUMOR VOLUME (B-16 melanoma; B16 melanoma, 4 mg/kg, day 14): 3.500 CM^3 | AWC (average weight change) (B-16 melanoma; B16 melanoma, 4 mg/kg, day 14): +2.4 GM | DEATHS (D/L) (B-16 melanoma; B16 melanoma, 4 mg/kg, day 14): 0/2 | PERCENT OF CONTROL (tumor volume) (B-16 melanoma; B16 melanoma, 4 mg/kg, day 14): 109.8% | average weight loss (B-16 melanoma; B-16 melanoma, 4 mg/kg): 1.8 gm | tumor volume decrease (B-16 melanoma; B-16 melanoma, 4 mg/kg): 40% | AWC (average weight change) (B-16 melanoma; [4]): -1.8 gm | Ave Tumor Volume (T/C) (B-16 melanoma; [4]): 0.595 | AWC (average weight change) (Sarcoma 180; [5]): -0.9 gm | Ave Tumor Volume (T/C) (Sarcoma 180; [5]): 0.634 | AVERAGE TUMOR VOLUME (Sarcoma 180; Sarcoma 180, 4 mg/kg, day 7): 0.104 CM^3 | DEATHS (D/L) (Sarcoma 180; Sarcoma 180, 4 mg/kg, day 7): 0/2 | PERCENT OF CONTROL (tumor volume) (Sarcoma 180; Sarcoma 180, 4 mg/kg, day 7): 63.4% | AVERAGE TUMOR VOLUME (Sarcoma 180; Sarcoma 180, 4 mg/kg, day 14): 0.080 CM^3 | AWC (average weight change) (Sarcoma 180; Sarcoma 180, 4 mg/kg, day 14): +0.8 GM | DEATHS (D/L) (Sarcoma 180; Sarcoma 180, 4 mg/kg, day 14): 0/2 | PERCENT OF CONTROL (tumor volume) (Sarcoma 180; Sarcoma 180, 4 mg/kg, day 14): 39.4% | average weight loss (Sarcoma 180; sarcoma 180, 4 mg/kg): 0.9 gm | tumor volume decrease (Sarcoma 180; sarcoma 180, 4 mg/kg): 36% | inhibition of topoisomerase I on DNA unwinding (topoisomerase I): inhibits the action of topoisomerase I on DNA unwinding; also recorded: reversible with heat, high salt concentrations and high dilution | binding to the enzyme or DNA target in isolation (topoisomerase I and DNA): binds neither to the enzyme nor to its DNA target in isolation | toxicity [2]: High toxicity
